Measured values taken from patent US10646469B2, “Substituted indole derivatives as dengue viral replication inhibitors” (Janssen Pharmaceuticals, Inc., priority 2016, dated 2020).
Where two headings read alike, the source gives them in different places.

Key:
[1] = analogous DENV-2 antiviral assay, reported activity; cited from earlier work
DENV-2 = details: analogous DENV-2 antiviral assay, reported activity; cited from earlier work
DENV-3 strain H87 = assay: Tetravalent RT-qPCR assay, serotype 3; type: cell-based; details: Dengue virus, DENV3, 72 h; RT-qPCR serotype 3 H87, Protocol A, Vero cells, day 3
Method: (§1) The antiviral activity of the compounds of the invention was tested against DENV-1 strain TC974 #666 (NCPV), DENV-2 strain 16681, DENV-3 strain H87 (NCPV) and DENV-4 strain H241 (NCPV) in a RT-qPCR assay. Therefore, Vero cells were infected with either DENV-1, or -2, or -3, or -4 in the presence or absence of test compounds. At day 3 post-infection, the cells were lysed and cell lysates were used to prepare cDNA of both a viral target (the 3′UTR of DENV; Table 2) and cellular reference gene (β-actin, Table 2). Subsequently, a duplex real time PCR was performed on a Lightcycler480 instrument. The generated Cp value is inversely proportional to the amount of RNA expression of these targets. Inhibition of DENV replication by a test compound results in a shift of Cp's for the 3′UTR gene. On the other hand, if a test compound is toxic to the cells, a similar effect on β-actin expression will be observed. The comparative ΔΔCp method is used to calculate EC50, which is based on the relative gene expression of the target gene (3′UTR) normalized with the cellular housekeeping gene (β-actin). In addition, CC50 values are determined based on the Cp values acquired for the housekeeping gene β-actin.
(§2) The culture medium consisted of minimal essential medium supplemented with 2% of heat-inactivated fetal calf serum, 0.04% gentamycin (50 mg/mL) and 2 mM of L-glutamine. Vero cells, obtained from ECACC, were suspended in culture medium and 75 μL/well was added in 96-well plates (10000 cells/well), which already contain the antiviral compounds. […] In addition, each plate contains wells which are assigned as virus controls (containing cells and virus in the absence of compound) and cell controls (containing cells in the absence of virus and compound). Once the cells were added in the plates, the plates were incubated in a fully humidified incubator (37° C., 5% CO2) until the next day. Dengue viruses serotype-1, 2, 3 and 4 were diluted in order to obtain a Cp of ˜22-24 in the assay. Therefore, 25 μL of virus suspension was added to all the wells containing test compound and to the wells assigned as virus control. In parallel, 25 μL of culture medium was added to the cell controls. Next, the plates were incubated for 3 days in a fully humidified incubator (37° C., 5% CO2). After 3 days, the supernatant was removed from the wells and the cells were washed twice with ice-cold PBS (˜100 μL). The cell pellets within the 96-well plates were stored at −80° C. for at least 1 day. Next, RNA was extracted using the Cells-to-CT™ lysis kit, according to the manufacturer's guideline (Life Technologies). The cell lysates can be stored at −80° C. or immediately used in the reverse transcription step.
(§3) In preparation of the reverse transcription step, mix A (table 3A) was prepared and 7.57 μL/well was dispensed in a 96-well plate. After addition of 5 μL of the cell lysates, a five minute denaturation step at 75° C. was performed (table 3B). Afterwards, 7.43 μL of mix B was added (table 3C) and the reverse transcription step was initiated (table 3D) to generate cDNA.
(§4) Finally, a RT-qPCR mix was prepared, mix C (table 4A), and 22.02 μL/well was dispensed in 96-well LightCycler qPCR plates to which 3 μL of cDNA was added and the qPCR was performed according to the conditions in table 4B on a LightCycler 480.
(§5) Using the LightCycler software and an in-house LIMS system, dose response curves for each compound were calculated and the half maximal effective concentration (EC50) and the half maximal cytotoxic concentration (CC50) were determined (Tables 5-8).

DENV-2 16681 strain = assay: DENV-2 antiviral assay (eGFP-labeled virus in Vero cells); type: cell-based, Dengue virus; details: DENV-2 16681 eGFP, MOI 0.5, 3 days
How it was run: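 Vero cells (2500/well) pre-plated with compound (9-step 5-fold series), infected next day with eGFP-labeled DENV-2 16681 at MOI 0.5 in MEM with 2% FCS; 3 days at 37° C. eGFP fluorescence read at 488 nm; inhibition versus virus and cell controls, EC50 by linear interpolation.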

[2] = Toxicity on the same plates (ATPlite cell viability); details: African green monkey, CC50, Vero cells, same plates as DENV-2 antiviral assay
DENV-1 strain TC974 #666 = assay: Tetravalent RT-qPCR assay, serotype 1; type: cell-based; details: Dengue virus, DENV1, 72 h; RT-qPCR serotype 1 TC974#666, Protocol A, Vero cells, day 3
Method: as §1, §2, §3, §4, §5

[3] = Cytotoxicity in RT-qPCR assay (Cp of housekeeping gene β-actin); type: cell-based; details: African green monkey
Method: as §1, §2, §5

DENV-4 strain H241 = assay: Tetravalent RT-qPCR assay, serotype 4; type: cell-based; details: Dengue virus, DENV4, 72 h; RT-qPCR serotype 4 H241, Protocol A, Vero cells, day 3
Method: as §1, §2, §3, §4, §5

DENV-2 strain 16681 = assay: Tetravalent RT-qPCR assay, serotype 2; type: cell-based; details: Dengue virus, DENV2, 72 h; RT-qPCR serotype 2 16681, Protocol A, Vero cells, day 3
Method: as §1, §2, §3, §4, §5

[4] = RT-qPCR serotype 1 TC974#666, Protocol A
[5] = RT-qPCR serotype 2 16681, Protocol A
[6] = RT-qPCR serotype 3 H87, Protocol A
[7] = RT-qPCR serotype 4 H241, Protocol A
[8] = Dengue virus, DENV2, Vero, 72 h

Compound: COc1cc(NC(C(=O)c2c[nH]c3ccccc23)c2ccc(F)cc2)cc(OCCO)c1 (stereo not shown) [(350) of WO-2013/045516]
- CC50 [1]: 46000 nM
- EC50 (DENV-2): 10 nM

Compound: COc1cc(NC(C(=O)c2c[nH]c3c(C)cc(OC(F)(F)F)cc23)c2ccc(Cl)cc2OC)cc(OCCO)c1 (single isomer, unassigned) [Compound 16A, 2-(4-chloro-2-methoxyphenyl)-2-((3-(2-hydroxyethoxy)-5-methoxyphenyl)amino)-1-(7-methyl-5-(trifluoromethoxy)-1H-indol-3-yl)ethanone]
- EC50 (DENV-3 strain H87): 1.7 nM
- EC50 (DENV-2 16681 strain): 0.098 nM
- CC50 [2]: 2400 nM
- EC50 (DENV-1 strain TC974 #666): 0.63 nM
- CC50 at 3 days [3, 4]: > 2500 nM
- CC50 at 3 days [3, 5]: > 2500 nM
- CC50 at 3 days [3, 6]: > 2500 nM
- CC50 at 3 days [3, 7]: > 2000 nM
- EC50 (DENV-4 strain H241): 17 nM
- EC50 (DENV-2 strain 16681): 0.15 nM

Compound: COc1cc(NC(C(=O)c2c[nH]c3cc(OC)c(OC(F)(F)F)cc23)c2ccc(F)cc2OC)cc(OCCO)c1 (racemic) [Compound 6, 2-(4-fluoro-2-methoxyphenyl)-2-((3-(2-hydroxyethoxy)-5-methoxyphenyl)amino)-1-(6-methoxy-5-(trifluoromethoxy)-1H-indol-3-yl)ethanone]
- EC50 (DENV-2 16681 strain; [8]): 0.84 nM
- CC50 [2]: 3600 nM
- melting point: 178 °C

Compound: COc1cc(NC(C(=O)c2c[nH]c3cc(OC)c(C(F)(F)F)cc23)c2ccc(F)cc2OC)cc(OCCO)c1 (racemic) [Compound 2, 2-(4-fluoro-2-methoxyphenyl)-2-((3-(2-hydroxyethoxy)-5-methoxyphenyl)amino)-1-(6-methoxy-5-(trifluoromethyl)-1H-indol-3-yl)ethanone]
- EC50 (DENV-2 16681 strain; [8]): 0.71 nM
- CC50 [2]: 4800 nM
- melting point: 174 °C

Compound: COc1cc(NC(C(=O)c2c[nH]c3cc(F)c(C(F)(F)F)cc23)c2ccc(Cl)cc2OC)cc(OCCO)c1 (single isomer, unassigned) [Compound 11A, 2-(4-chloro-2-methoxyphenyl)-1-(6-fluoro-5-(trifluoromethyl)-1H-indol-3-yl)-2-((3-(2-hydroxyethoxy)-5-methoxyphenyl)amino)ethanone]
- EC50 (DENV-3 strain H87): 5.7 nM
- EC50 (DENV-2 16681 strain): 0.33 nM
- CC50 [2]: 2500 nM
- EC50 (DENV-1 strain TC974 #666): 0.69 nM
- CC50 at 3 days [3, 4]: > 2500 nM
- CC50 at 3 days [3, 5]: > 2500 nM
- CC50 at 3 days [3, 6]: > 2500 nM
- CC50 at 3 days [3, 7]: 1900 nM
- EC50 (DENV-4 strain H241): 39 nM
- EC50 (DENV-2 strain 16681): 0.24 nM

Compound: COc1cc(NC(C(=O)c2c[nH]c3c(C)cc(OC(F)(F)F)cc23)c2ccc(Cl)cc2OC)cc(OCCO)c1 (racemic) [Compound 16, 2-(4-chloro-2-methoxyphenyl)-2-((3-(2-hydroxyethoxy)-5-methoxyphenyl)amino)-1-(7-methyl-5-(trifluoromethoxy)-1H-indol-3-yl)ethanone]
- EC50 (DENV-2 16681 strain; [8]): 0.19 nM
- CC50 [2]: 2500 nM
- melting point: 105 °C

Compound: COc1cc(NC(C(=O)c2c[nH]c3ccc(C(F)(F)F)cc23)c2ccc(F)cc2OC)cc(OCCO)c1 (racemic) [Compound 1, 2-(4-fluoro-2-methoxyphenyl)-2-((3-(2-hydroxyethoxy)-5-methoxyphenyl)amino)-1-(5-(trifluoromethyl)-1H-indol-3-yl)ethanone]
- EC50 (DENV-2 16681 strain; [8]): 1.2 nM
- CC50 [2]: 5500 nM
- melting point: 132 °C
